The source of these data is patent US20210205253A1, “Use Of Stearic Acid For Preventing Or Treating Pulmonary Fibrosis” (THE ASAN FOUNDATION, priority 2018, published 2021).

The subject of test [1] is human pulmonary epithelial cells (BEAS-2B). Put plainly: Cell viability (MTT) of human pulmonary epithelial cells. It counts as cell-based. The settings on record: stearic acid 40 uM/mL + TGF-β 5 ng/mL, 24 h, versus TGF-β alone. Here is the method:
After epithelial cells and fibroblasts were aliquoted into 6-well plates at 2×10^4 cells/well and a stabilization time was imparted for 24 hours, and 15 hours after deficiency, cells were treated with stearic acid (40 uM/mL), TGF-β (5 ng/mL), and stearic acid (40 uM/mL)+TGF-β (5 ng/mL) in this order. After the cells were cultured in an incubator for 24 hours after the treatment, the next-step experiment was performed.
After a 24-hour cell stimulation by the method in Example 1-3 was completed, the medium of epithelial cells and fibroblasts was replaced with a general culture medium, 10 μl of an MTT solution (20 mg/ml) was further added, and then the outside of the plate was wrapped with aluminum foil and cells were cultured in an incubator for 2 hours. […] After 2 hours, cell activation was measured at an absorbance value of 595 nm using an ELISA reader.
For this purpose, after each culture (BEGM(Lonza) in the case of MRC-5, and BMEM (ATCC) in the case of BEAS-2B) of human pulmonary fibroblasts (MRC-5; ATCC® CCL171™) and human pulmonary epithelial cells (BEAS-2B; ATCC® CRL9609™) was treated with stearic acid (40 uM/mL), TGF-β (5 ng/mL; Sigma), or stearic acid (40 uM/mL)+TGF-β (5 ng/mL) by the method described in Example 1-3 for 24 hours, cell viability was measured by the method in Example 1-4. […]

The test system of the next test is pulmonary fibroblasts. Put plainly: Collagen 1 and α-SMA immunoblotting in pulmonary fibroblasts. It counts as cell-based, human. The settings on record: stearic acid 40 uM/mL. Here is the method: After epithelial cells and fibroblasts were aliquoted into 6-well plates at 2×10^4 cells/well and a stabilization time was imparted for 24 hours, and 15 hours after deficiency, cells were treated with stearic acid (40 uM/mL), TGF-β (5 ng/mL), and stearic acid (40 uM/mL)+TGF-β (5 ng/mL) in this order. After the cells were cultured in an incubator for 24 hours after the treatment, the next-step experiment was performed. After 24 hours of cell stimulation by the method of Example 1-3, the cells were washed twice with iced phosphate buffer saline (PBS), a protein lysate solution was put thereinto, the cells were scraped out and collected in a 1.5 ml EP tube, and then the cells were lysed in a grinder for 30 seconds. Next, centrifugation was performed at a speed of 14,000 rpm at 4° C. for 20 minutes, and the protein was quantified using the BCA analysis method. Thereafter, the protein sample was boiled at 95° C. for 10 minutes for the same amount of protein, and then the expression levels of collagen type 1 and α-SMA were measured by immunoblotting. After the expression level of the protein was confirmed, a significance test between samples was performed using a statistical program. […] The collagen 1/actin or α-SMA/actin indicated on the y-axis of FIGS. 4A and 4B means a value obtained by correcting the protein amount of collagen 1 or α-SMA with the amount of actin, which is an intracellular control protein. […] Further, referring to the test method of obtaining the results in FIG. 4, after pulmonary fibroblasts were treated with palmitic acid at various concentrations (10, 20, and 40 μM/mL), the levels of collagen 1 (collagen 1/actin; FIG. 6A) and α-SMA (α-SMA/actin; FIG. 6B), which are intracellular fibrosis markers, were measured, and shown as relative values to the control (CTL; medium only). […] 40 uM/mL stearic acid, 10 uM/mL palmitic acid, and 5 ng/mL TGF-β were used in the experiment, respectively. […] In addition, referring to the test method of obtaining the results in FIG. 7, the experiment was performed using oleic acid (OA) instead of palmitic acid, and the levels of collagen 1 (collagen 1/actin; FIG. 8A) and α-SMA (α-SMA/actin; FIG. 8B) were measured and shown as relative values to the control (CTL; medium only). 40 uM/mL stearic acid, 40 uM/mL oleic acid, and 5 ng/mL TGF-β were used in the experiment, respectively.
(In general: Immunoblotting shows a protein as a band on a membrane.)

Test [2] concerns pulmonary fibrosis induced by bleomycin. The test can be described thus: Combined stearic acid and pirfenidone in bleomycin pulmonary fibrosis animal model. The class given is in vivo, mice (C57BL/6J). The conditions noted are these: 3 mg/kg stearic acid, 300 mg/kg pirfenidone oral once every 2 days for 2 weeks; versus bleomycin group. Here is the method:
In addition to the results of the above examples, the present inventors sought to confirm the anti-fibrotic effect by the combined treatment of stearic acid and pirfenidone in a pulmonary fibrosis animal model. For this purpose, 8-week-old mice (C57BL/6J) were anesthetized with 50 mg/kg […] and 5 mg/kg Rompun, followed by injection of bleomycin and saline into the trachea. From 7 days after administration of bleomycin, 3 mg/kg stearic acid, 300 mg/kg pirfenidone or the two drugs were orally administered at the same time once every 2 days for 2 weeks, and changes in mouse body weight were measured up to 21 days after administration of bleomycin.

[3] abbreviates: increase by oleic acid 40 uM/mL.
Where [4] appears, read: increase by palmitic acid 10 uM/mL.

On to `CCCCCCCCCCCCCCCCCC(=O)O` [stearic acid], for which, in test [1], the “cell viability of pulmonary epithelial cells” value is reported as “cell viability increased”. Further, the “collagen 1/actin” value in the test on pulmonary fibroblasts (increase by TGF-β 5 ng/mL), in the test with pulmonary fibroblasts (setting [3]) and in the test with pulmonary fibroblasts (setting [4]) was “significantly inhibited” in each case. Further, the α-SMA/actin result in the test with pulmonary fibroblasts (increase by TGF-β 5 ng/mL), in the test on pulmonary fibroblasts (setting [3]) and with pulmonary fibroblasts (setting [4]) was “significantly inhibited” each time. In test [2], the level of hydroxyproline result is reported as “partially reduced”.
